Key:
Type in all cases: in vivo
Digitaria = assay: Postemergence test, greenhouse; settings: halosulfuron 100 g/ha, after 20 days
Text: (§1) A synergistic effect is always obtained when the herbicidal action of the combination of compound I and 2.1 to 2.33 is greater than the sum of the action of the individual herbicides.
(§2) The expected herbicidal action We for a given combination of two herbicides can be calculated as follows (q.v. COLBY, S. R., “Calculating synergistic and antagonistic response of herbicide combinations”, Weeds 15, pages 20-22, 1967):
(§3) If the value actually observed is higher than the expected value We, then there is synergism.
(§4) The test plants are grown under greenhouse conditions in plastic pots until reaching the 2-3 leaf stage. Standard soil is used, as the substrate for cultivation. At the 2-3 leaf stage, the herbicides are applied to the test plants on their own and in a mixture. Application is effected in the form of an aqueous suspension of the test substances in 500 1 water/ha. The rates of application depend on the optimum dosages determined under field conditions and greenhouse conditions. Evaluation of the tests is made after 20 days (% activity, 100%=plant perished, 0%=no phytotoxic effect).

maize Dk 261 = assay: Postemergence test, greenhouse; settings: halosulfuron 100 g/ha, after 20 days
Text: as §1, §2, §3, §4

Ipomoea = assay: Pre-emergence test, greenhouse; settings: terbutylazin 200 g/ha, after 26 days
Text: as §1, §2, §3
(§5) The test plants are sown in plastic pots in standard soil under greenhouse conditions. Directly after sowing, the test substances are applied in an aqueous suspension (500 l water/ha). The test plants are then further cultivated in the greenhouse under optimum conditions. The rates of application depend on the optimum dosages determined under field conditions and greenhouse conditions. Evaluation of the tests is made after 26 days (% activity, 100% plant perished, 0%=no phytotoxic effect).

Convolvulus = assay: Pre-emergence test, greenhouse; settings: terbutylazin 200 g/ha, after 26 days
Text: as §1, §2, §3, §5

Xanthium = assay: Pre-emergence test, greenhouse; settings: terbutylazin 200 g/ha, after 26 days
Text: as §1, §2, §3, §5

Polygonum = assay: Pre-emergence test, greenhouse; settings: terbutylazin 200 g/ha, after 26 days
Text: as §1, §2, §3, §5

SMILES	% activity (herbicidal action) (Digitaria) [%]	% activity (herbicidal action) (maize Dk 261) [%]	% activity (herbicidal action) (Ipomoea) [%]	% activity (herbicidal action) (Convolvulus) [%]	% activity (herbicidal action) (Xanthium) [%]	% activity (herbicidal action) (Polygonum) [%]
COc1cc(OC)nc(NC(=O)NS(=O)(=O)c2c(C(=O)O)c(Cl)nn2C)n1 [halosulfuron]	25	5	–	–	–	–
CCNc1nc(Cl)nc(NC(C)(C)C)n1 [terbutylazin]	–	–	30	80	0	60
